Measurements reported in patent US20260250318A1, “COMPOSITIONS AND METHODS FOR CROSSING THE BLOOD BRAIN BARRIER” (VOYAGER THERAPEUTICS, INC., priority 2022, published 2026).

Each sequence was assayed on brains, heart, liver, muscle, and DRG of the NHPs (assay: Maturation of TTM-001 and TTM-002 capsids, NGS enrichment in NHP tissues). Conditions: NGS fold-enrichment of RNA, NHP brain, relative to AAV9 control.
Type: in vivo
How it was run: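 Variants carry mutations within and flanking the loop IV peptide insert: positions 450–466 were triplet-randomized, while positions 449–466 received low-frequency point mutations. The combined pool went into two NHPs, and each peptide was scored by NGS enrichment ratio against AAV9.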

| Sequence | Fold Enrichment relative to AAV9, Brain (NHP) [fold] |
| --- | --- |
| KTEKTSGSPHSKAQNQQT | 120.337 |
| KTINGSGSPHSKALNRQS | 96.843 |
| KTENMSGSPHSKAQNQQT | 89.247 |
| KSINGHDSPHKSGQYQHT | 88.195 |
| KTIYGHDSPHKSVQNQLT | 92.381 |
| KATNGSGSPHSKAQNHQT | 82.627 |

Same assay, conditions: NGS fold-enrichment of matured AAV capsid variants; NHP brain, RNA; relative to AAV9 control

| Sequence | Fold Enrichment relative to AAV9, Brain (NHP) [fold] |
| --- | --- |
| KTINGSGSPHSKAQMPST | 54.986 |
| KNSIGSGSPHSKAQNQQT | 57.101 |
| KGVLGSGSPHSKAQNQQT | 54.472 |
| KTSNGSGSPHSKAHYQQT | 54.414 |

Same assay, conditions: NGS fold-enrichment, DRG of NHPs, relative to AAV9 control

| Sequence | Fold Enrichment relative to AAV9, DRG (NHP) [fold] |
| --- | --- |
| KTINGSGSPHSKAQTPPT | 0.010 |
| KTELHSGSPHSKAQNQQT | 0.000 |
| KTEKTSGSPHSKAQNQQT | 0.000 |
| KTIDGSGSPHSKGQNRQT | 0.000 |
| KTVKDSGSPHSKAQNQQT | 0.000 |
| KTINGSGSPHSKALNRQS | 0.136 |
| KTENMSGSPHSKAQNQQT | 0.000 |
| KNINGSGSPHSKAQNQQT (KNTNGSGSPHSKAQNQQT) | 0.000 |
| KATNGSGSPHSKAQNHQT | 0.000 |

Same assay, conditions: NGS fold-enrichment, NHP DRG, relative to AAV9 control

| Sequence | Fold Enrichment relative to AAV9, DRG (NHP) [fold] |
| --- | --- |
| KTEKTSGSPHSKAQNQQT | 0.000 |
| KTINGSGSPHSKALNRQS | 0.136 |
| KTENMSGSPHSKAQNQQT | 0.000 |
| KSINGHDSPHKSGQYQHT | 0.000 |
| KTIYGHDSPHKSVQNQLT | 0.000 |
| KATNGSGSPHSKAQNHQT | 0.000 |

Same assay, conditions: NGS fold-enrichment, NHP heart, relative to AAV9 control

| Sequence | Fold Enrichment relative to AAV9, Heart (NHP) [fold] |
| --- | --- |
| KTEKTSGSPHSKAQNQQT | 0.355 |
| KTINGSGSPHSKALNRQS | 0.532 |
| KTENMSGSPHSKAQNQQT | 0.000 |
| KSINGHDSPHKSGQYQHT | 0.099 |
| KTIYGHDSPHKSVQNQLT | 0.043 |
| KATNGSGSPHSKAQNHQT | 0.176 |

Same assay, conditions: NGS fold-enrichment, NHP liver DNA, relative to AAV9 control

| Sequence | Fold Enrichment relative to AAV9, Liver DNA (NHP) [fold] |
| --- | --- |
| KTEKTSGSPHSKAQNQQT | 0.119 |
| KTINGSGSPHSKALNRQS | 0.178 |
| KTENMSGSPHSKAQNQQT | 0.260 |
| KSINGHDSPHKSGQYQHT | 0.149 |
| KTIYGHDSPHKSVQNQLT | 0.016 |
| KATNGSGSPHSKAQNHQT | 0.057 |

Same assay, conditions: NGS fold-enrichment, NHP liver RNA, relative to AAV9 control

| Sequence | Fold Enrichment relative to AAV9, Liver RNA (NHP) [fold] |
| --- | --- |
| KTEKTSGSPHSKAQNQQT | 0.000 |
| KTINGSGSPHSKALNRQS | 0.042 |
| KTENMSGSPHSKAQNQQT | 0.000 |
| KSINGHDSPHKSGQYQHT | 0.000 |
| KTIYGHDSPHKSVQNQLT | 0.103 |
| KATNGSGSPHSKAQNHQT | 0.155 |

Same assay, conditions: NGS fold-enrichment, NHP muscle, relative to AAV9 control

| Sequence | Fold Enrichment relative to AAV9, Muscle (NHP) [fold] |
| --- | --- |
| KTEKTSGSPHSKAQNQQT | 0.000 |
| KTINGSGSPHSKALNRQS | 0.000 |
| KTENMSGSPHSKAQNQQT | 0.000 |
| KSINGHDSPHKSGQYQHT | 0.000 |
| KTIYGHDSPHKSVQNQLT | 0.000 |
| KATNGSGSPHSKAQNHQT | 0.000 |

Same assay, conditions: NGS fold-enrichment, RNA, brain of NHPs, relative to AAV9 control

| Sequence | Fold Enrichment relative to AAV9, Brain (NHP) [fold] |
| --- | --- |
| KTINGSGSPHSKAQTPPT | 64.657 |
| KTELHSGSPHSKAQNQQT | 74.620 |
| KTEKTSGSPHSKAQNQQT | 120.337 |
| KTIDGSGSPHSKGQNRQT | 73.930 |
| KTVKDSGSPHSKAQNQQT | 60.216 |
| KTINGSGSPHSKALNRQS | 96.843 |
| KTENMSGSPHSKAQNQQT | 89.247 |
| KNINGSGSPHSKAQNQQT (KNTNGSGSPHSKAQNQQT) | 78.445 |
| KATNGSGSPHSKAQNHQT | 82.627 |

Same assay, conditions: NGS fold-enrichment, heart of NHPs, relative to AAV9 control

| Sequence | Fold Enrichment relative to AAV9, Heart (NHP) [fold] |
| --- | --- |
| KTINGSGSPHSKAQTPPT | 0.015 |
| KTELHSGSPHSKAQNQQT | 0.000 |
| KTEKTSGSPHSKAQNQQT | 0.355 |
| KTIDGSGSPHSKGQNRQT | 0.000 |
| KTVKDSGSPHSKAQNQQT | 0.019 |
| KTINGSGSPHSKALNRQS | 0.532 |
| KTENMSGSPHSKAQNQQT | 0.000 |
| KNINGSGSPHSKAQNQQT (KNTNGSGSPHSKAQNQQT) | 0.000 |
| KATNGSGSPHSKAQNHQT | 0.176 |

Same assay, conditions: NGS fold-enrichment, liver DNA of NHPs, relative to AAV9 control

| Sequence | Fold Enrichment relative to AAV9, Liver DNA (NHP) [fold] |
| --- | --- |
| KTINGSGSPHSKAQTPPT | 0.207 |
| KTELHSGSPHSKAQNQQT | 0.089 |
| KTEKTSGSPHSKAQNQQT | 0.119 |
| KTIDGSGSPHSKGQNRQT | 0.091 |
| KTVKDSGSPHSKAQNQQT | 0.251 |
| KTINGSGSPHSKALNRQS | 0.178 |
| KTENMSGSPHSKAQNQQT | 0.260 |
| KNINGSGSPHSKAQNQQT (KNTNGSGSPHSKAQNQQT) | 0.177 |
| KATNGSGSPHSKAQNHQT | 0.057 |

Same assay, conditions: NGS fold-enrichment, liver RNA of NHPs, relative to AAV9 control

| Sequence | Fold Enrichment relative to AAV9, Liver RNA (NHP) [fold] |
| --- | --- |
| KTINGSGSPHSKAQTPPT | 0.200 |
| KTELHSGSPHSKAQNQQT | 0.021 |
| KTEKTSGSPHSKAQNQQT | 0.000 |
| KTIDGSGSPHSKGQNRQT | 0.106 |
| KTVKDSGSPHSKAQNQQT | 0.443 |
| KTINGSGSPHSKALNRQS | 0.042 |
| KTENMSGSPHSKAQNQQT | 0.000 |
| KNINGSGSPHSKAQNQQT (KNTNGSGSPHSKAQNQQT) | 0.571 |
| KATNGSGSPHSKAQNHQT | 0.155 |

Same assay, conditions: NGS fold-enrichment, muscle of NHPs, relative to AAV9 control

| Sequence | Fold Enrichment relative to AAV9, Muscle (NHP) [fold] |
| --- | --- |
| KTINGSGSPHSKAQTPPT | 0.014 |
| KTELHSGSPHSKAQNQQT | 0.000 |
| KTEKTSGSPHSKAQNQQT | 0.000 |
| KTIDGSGSPHSKGQNRQT | 0.000 |
| KTVKDSGSPHSKAQNQQT | 0.000 |
| KTINGSGSPHSKALNRQS | 0.000 |
| KTENMSGSPHSKAQNQQT | 0.000 |
| KNINGSGSPHSKAQNQQT (KNTNGSGSPHSKAQNQQT) | 0.000 |
| KATNGSGSPHSKAQNHQT | 0.000 |

Same assay, conditions: NHP DRG; relative to AAV9 control

| Sequence | Fold Enrichment relative to AAV9, DRG (NHP) [fold] |
| --- | --- |
| KTINGSGSPHSKAQMPST | 1.691 |
| KNSIGSGSPHSKAQNQQT | 0.000 |
| KGVLGSGSPHSKAQNQQT | 0.000 |
| KTSNGSGSPHSKAHYQQT | 0.000 |

Same assay, conditions: NHP heart; relative to AAV9 control

| Sequence | Fold Enrichment relative to AAV9, Heart (NHP) [fold] |
| --- | --- |
| KTINGSGSPHSKAQMPST | 0.039 |
| KNSIGSGSPHSKAQNQQT | 0.052 |
| KGVLGSGSPHSKAQNQQT | 0.007 |
| KTSNGSGSPHSKAHYQQT | 0.251 |

Same assay, conditions: NHP liver, DNA; relative to AAV9 control

| Sequence | Fold Enrichment relative to AAV9, Liver DNA (NHP) [fold] |
| --- | --- |
| KTINGSGSPHSKAQMPST | 0.202 |
| KNSIGSGSPHSKAQNQQT | 0.074 |
| KGVLGSGSPHSKAQNQQT | 0.189 |
| KTSNGSGSPHSKAHYQQT | 0.204 |

Same assay, conditions: NHP liver, RNA; relative to AAV9 control

| Sequence | Fold Enrichment relative to AAV9, Liver RNA (NHP) [fold] |
| --- | --- |
| KTINGSGSPHSKAQMPST | 0.450 |
| KNSIGSGSPHSKAQNQQT | 0.083 |
| KGVLGSGSPHSKAQNQQT | 0.359 |
| KTSNGSGSPHSKAHYQQT | 0.249 |

Same assay, conditions: NHP muscle; relative to AAV9 control

| Sequence | Fold Enrichment relative to AAV9, Muscle (NHP) [fold] |
| --- | --- |
| KTINGSGSPHSKAQMPST | 0.028 |
| KNSIGSGSPHSKAQNQQT | 0.000 |
| KGVLGSGSPHSKAQNQQT | 0.027 |
| KTSNGSGSPHSKAHYQQT | 0.000 |

What follows are sequences tested on brain (assay: Matured TTM-001 and TTM-002 variants, NGS enrichment in mouse brain). Conditions: NGS fold-enrichment, brain of mice, relative to AAV9 control.
Type: in vivo, mice

| Sequence | Fold Enrichment relative to AAV9, Brain (Mouse) [fold] |
| --- | --- |
| KTINGSGSPHSKAQTPPT | 54.179 |
| KTELHSGSPHSKAQNQQT | 53.124 |
| KTEKTSGSPHSKAQNQQT | 101.467 |
| KTIDGSGSPHSKGQNRQT | 63.626 |
| KTVKDSGSPHSKAQNQQT | 87.334 |
| KTINGSGSPHSKALNRQS | 55.945 |
| KTENMSGSPHSKAQNQQT | 130.568 |
| KNINGSGSPHSKAQNQQT (KNTNGSGSPHSKAQNQQT) | 89.719 |
| KATNGSGSPHSKAQNHQT | 66.207 |

Same assay, conditions: NGS fold-enrichment, mouse brain, relative to AAV9 control

| Sequence | Fold Enrichment relative to AAV9, Brain (Mouse) [fold] |
| --- | --- |
| KTEKTSGSPHSKAQNQQT | 101.467 |
| KTINGSGSPHSKALNRQS | 55.945 |
| KTENMSGSPHSKAQNQQT | 130.568 |
| KSINGHDSPHKSGQYQHT | 14.485 |
| KTIYGHDSPHKSVQNQLT | 12.323 |
| KATNGSGSPHSKAQNHQT | 66.207 |

Same assay, conditions: mouse brain; relative to AAV9 control

| Sequence | Fold Enrichment relative to AAV9, Brain (Mouse) [fold] |
| --- | --- |
| KTINGSGSPHSKAQMPST | 114.331 |
| KNSIGSGSPHSKAQNQQT | 97.381 |
| KGVLGSGSPHSKAQNQQT | 145.740 |
| KTSNGSGSPHSKAHYQQT | 54.162 |
